Measurements as given in PubChem BioAssay AID2060884 (Molecular Pharmacology Branch, DTP, NCI, 2025).

Tested on: NCI-H929 complex spheroids, viability % test/control
Test: Anticancer human tumor NCI-H929 cell line growth inhibition [RAS];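 note: compound exposure lasted seven days before viability was read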;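 for viability, T/C: 100% = DMSO vehicle control viability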
Details: for IC50: curve of first compound; for viability, T/C: stronger effect = lower value
How it was run: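 Agents were tested in combination matrices in half-log decrements from a top concentration at or near clinical Cmax (10 microM if undetermined). Targets were multi-cell spheroids of tumour lines plus HUVEC and MSC stromal cells.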

## CC1(O)CCCC1n1c(=O)c(C(F)F)cc2cnc(NC3CCN(S(C)(=O)=O)CC3)nc21 (centres undefined) + C#Cc1c(F)ccc2cc(O)cc(-c3ncc4c(N5CC6CCC(C5)N6)nc(OCC56CCCN5CC(F)C6)nc4c3F)c12
Second compound 0.0316 µM
  IC50: 190 nM
Second compound 0.1 µM
  IC50: 191 nM
Second compound 0.316 µM
  IC50: 194 nM
Second compound 1 µM
  IC50: 193 nM
Second compound 3.16 µM
  IC50: 183 nM
Second compound 10 µM
  IC50: 105 nM
Second compound 0.0316 µM, first compound 0.0316 µM
  viability, T/C: 112%
Second compound 0.0316 µM, first compound 0.1 µM
  viability, T/C: 106%
Second compound 0.0316 µM, first compound 0.316 µM
  viability, T/C: 5.76%
Second compound 0.0316 µM, first compound 1 µM
  viability, T/C: 10.1%
Second compound 0.0316 µM, first compound 3.16 µM
  viability, T/C: 3.99%
Second compound 0.0316 µM, first compound 10 µM
  viability, T/C: 0.89%
Second compound 0.1 µM, first compound 0.0316 µM
  viability, T/C: 104%
Second compound 0.1 µM, first compound 0.1 µM
  viability, T/C: 108%
Second compound 0.1 µM, first compound 0.316 µM
  viability, T/C: 5.96%
Second compound 0.1 µM, first compound 1 µM
  viability, T/C: 11.6%
Second compound 0.1 µM, first compound 3.16 µM
  viability, T/C: 3.51%
Second compound 0.1 µM, first compound 10 µM
  viability, T/C: 0.63%
Second compound 0.316 µM, first compound 0.0316 µM
  viability, T/C: 105%
Second compound 0.316 µM, first compound 0.1 µM
  viability, T/C: 112%
Second compound 0.316 µM, first compound 0.316 µM
  viability, T/C: 6.91%
Second compound 0.316 µM, first compound 1 µM
  viability, T/C: 13.5%
Second compound 0.316 µM, first compound 3.16 µM
  viability, T/C: 4.01%
Second compound 0.316 µM, first compound 10 µM
  viability, T/C: 0.21%
Second compound 1 µM, first compound 0.0316 µM
  viability, T/C: 107%
Second compound 1 µM, first compound 0.1 µM
  viability, T/C: 109%
Second compound 1 µM, first compound 0.316 µM
  viability, T/C: 6.21%
Second compound 1 µM, first compound 1 µM
  viability, T/C: 11.2%
Second compound 1 µM, first compound 3.16 µM
  viability, T/C: 3.72%
Second compound 1 µM, first compound 10 µM
  viability, T/C: 0.45%
Second compound 3.16 µM, first compound 0.0316 µM
  viability, T/C: 114%
Second compound 3.16 µM, first compound 0.1 µM
  viability, T/C: 99%
Second compound 3.16 µM, first compound 0.316 µM
  viability, T/C: 6%
Second compound 3.16 µM, first compound 1 µM
  viability, T/C: 12.5%
Second compound 3.16 µM, first compound 3.16 µM
  viability, T/C: 2.73%
Second compound 3.16 µM, first compound 10 µM
  viability, T/C: 0.21%
Second compound 10 µM, first compound 0.0316 µM
  viability, T/C: 97.9%
Second compound 10 µM, first compound 0.1 µM
  viability, T/C: 51.8%
Second compound 10 µM, first compound 0.316 µM
  viability, T/C: 10.6%
Second compound 10 µM, first compound 1 µM
  viability, T/C: 11.6%
Second compound 10 µM, first compound 3.16 µM
  viability, T/C: 3.3%
Second compound 10 µM, first compound 10 µM
  viability, T/C: 0.45%

## CCC(CC)c1cc(NC2CCC(N)C2)n2nccc2n1 (centres undefined) + CCn1c(-c2cc(N3CCN(C)CC3)cnc2C(C)OC)c2c3cc(ccc31)-c1csc(n1)CC(NC(=O)C1CC1C)C(=O)N1CCCC(N1)C(=O)OCC(C)(C)C2
Second compound 0.000949 µM
  IC50: 1430 nM
Second compound 0.003 µM
  IC50: 1620 nM
Second compound 0.00949 µM
  IC50: 738 nM
Second compound 0.03 µM
  IC50: < 31.6 nM
Second compound 0.0949 µM
  IC50: < 31.6 nM
Second compound 0.3 µM
  IC50: < 31.6 nM
Second compound 0.000949 µM, first compound 0.0316 µM
  viability, T/C: 104%
Second compound 0.000949 µM, first compound 0.1 µM
  viability, T/C: 94.4%
Second compound 0.000949 µM, first compound 0.316 µM
  viability, T/C: 101%
Second compound 0.000949 µM, first compound 1 µM
  viability, T/C: 72.3%
Second compound 0.000949 µM, first compound 3.16 µM
  viability, T/C: 0.36%
Second compound 0.000949 µM, first compound 10 µM
  viability, T/C: 0.25%
Second compound 0.003 µM, first compound 0.0316 µM
  viability, T/C: 96.1%
Second compound 0.003 µM, first compound 0.1 µM
  viability, T/C: 93.5%
Second compound 0.003 µM, first compound 0.316 µM
  viability, T/C: 102%
Second compound 0.003 µM, first compound 1 µM
  viability, T/C: 85.8%
Second compound 0.003 µM, first compound 3.16 µM
  viability, T/C: 0.43%
Second compound 0.003 µM, first compound 10 µM
  viability, T/C: 0.14%
Second compound 0.00949 µM, first compound 0.0316 µM
  viability, T/C: 114%
Second compound 0.00949 µM, first compound 0.1 µM
  viability, T/C: 117%
Second compound 0.00949 µM, first compound 0.316 µM
  viability, T/C: 115%
Second compound 0.00949 µM, first compound 1 µM
  viability, T/C: 26.6%
Second compound 0.00949 µM, first compound 3.16 µM
  viability, T/C: 0.16%
Second compound 0.00949 µM, first compound 10 µM
  viability, T/C: 0.13%
Second compound 0.03 µM, first compound 0.0316 µM
  viability, T/C: 36.7%
Second compound 0.03 µM, first compound 0.1 µM
  viability, T/C: 34.9%
Second compound 0.03 µM, first compound 0.316 µM
  viability, T/C: 49.8%
Second compound 0.03 µM, first compound 1 µM
  viability, T/C: 2.49%
Second compound 0.03 µM, first compound 3.16 µM
  viability, T/C: 0.12%
Second compound 0.03 µM, first compound 10 µM
  viability, T/C: 0.1%
Second compound 0.0949 µM, first compound 0.0316 µM
  viability, T/C: 6.21%
Second compound 0.0949 µM, first compound 0.1 µM
  viability, T/C: 6.5%
Second compound 0.0949 µM, first compound 0.316 µM
  viability, T/C: 6.35%
Second compound 0.0949 µM, first compound 1 µM
  viability, T/C: 0.97%
Second compound 0.0949 µM, first compound 3.16 µM
  viability, T/C: 0.11%
Second compound 0.0949 µM, first compound 10 µM
  viability, T/C: 0.09%
Second compound 0.3 µM, first compound 0.0316 µM
  viability, T/C: 4.59%
Second compound 0.3 µM, first compound 0.1 µM
  viability, T/C: 3.76%
Second compound 0.3 µM, first compound 0.316 µM
  viability, T/C: 2.94%
Second compound 0.3 µM, first compound 1 µM
  viability, T/C: 1.37%
Second compound 0.3 µM, first compound 3.16 µM
  viability, T/C: 0.14%
Second compound 0.3 µM, first compound 10 µM
  viability, T/C: 0.12%
